Assay results: US20260226493A1, “HERBICIDE RESISTANT PLANTS” (SYNGENTA CROP PROTECTION AG, priority 2023, published 2026)

Legend:
Test in all cases: BIO3-BIO1 mutant enzyme activity in the presence of herbicide, percentage inhibition (fluorometric DAPA assay)
Assay type in all cases: biochemical
Conditions in all cases: read-out: percentage inhibition
[1] = molecular target: T1, Arabidopsis thaliana BIO3-BIO1 (BioDA) mutants (Arabidopsis thaliana, UniProt B0F481, F348T)
T1 construct: with the predicted N-terminal mitochondrial transit peptide removed; 6xHis-tag (N); thrombin cleavage site (N); made in house; host or cells: E. coli BL21 (DE3) bioA
T1 sequence (B0F481 23-833 F348T): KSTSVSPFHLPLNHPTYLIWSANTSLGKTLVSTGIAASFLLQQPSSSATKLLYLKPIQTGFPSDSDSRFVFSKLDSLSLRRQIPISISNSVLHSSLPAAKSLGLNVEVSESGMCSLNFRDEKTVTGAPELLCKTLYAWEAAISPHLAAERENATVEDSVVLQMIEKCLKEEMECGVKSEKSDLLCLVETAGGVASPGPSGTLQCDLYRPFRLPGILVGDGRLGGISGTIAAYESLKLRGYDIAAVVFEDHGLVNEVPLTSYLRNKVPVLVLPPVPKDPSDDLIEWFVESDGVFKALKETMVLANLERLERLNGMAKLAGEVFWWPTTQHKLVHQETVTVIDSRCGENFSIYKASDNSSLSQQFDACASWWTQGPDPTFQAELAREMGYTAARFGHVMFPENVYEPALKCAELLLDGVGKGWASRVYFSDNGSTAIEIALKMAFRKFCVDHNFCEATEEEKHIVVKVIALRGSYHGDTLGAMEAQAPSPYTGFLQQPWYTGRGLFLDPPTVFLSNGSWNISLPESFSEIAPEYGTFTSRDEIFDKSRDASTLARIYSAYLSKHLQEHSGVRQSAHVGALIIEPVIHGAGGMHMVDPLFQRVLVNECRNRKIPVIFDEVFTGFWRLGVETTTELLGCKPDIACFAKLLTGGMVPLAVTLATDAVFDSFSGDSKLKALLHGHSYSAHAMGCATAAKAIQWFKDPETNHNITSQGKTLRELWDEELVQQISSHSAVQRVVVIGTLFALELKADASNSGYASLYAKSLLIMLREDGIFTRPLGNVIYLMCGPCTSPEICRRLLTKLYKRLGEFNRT
Outline: (§1)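 His-tagged Arabidopsis BIO3-BIO1 mutants, expressed in E. coli and purified by IMAC and SEC, were preincubated at 50 nM with herbicide for 10 min at 20 °C in EPPS pH 8.6 with pyridoxal phosphate. Reaction with 100 μM spermidine and 20 μM KAPA ran 75 min at 20 °C; DAPA was derivatised with o-phthalaldehyde and read at ex 410/em 470 nm. […].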

[2] = molecular target: T2, Arabidopsis thaliana BIO3-BIO1 (BioDA) mutants (Arabidopsis thaliana, UniProt B0F481, A609V)
T2 construct: with the predicted N-terminal mitochondrial transit peptide removed; 6xHis-tag (N); thrombin cleavage site (N); made in house; host or cells: E. coli BL21 (DE3) bioA
T2 sequence (B0F481 23-833 A609V): as the sequence (B0F481 23-833 F348T) above, with T326F, A587V counted along it
Outline: as §1

[3] = molecular target: T3, Arabidopsis thaliana BIO3-BIO1 (BioDA) mutants (Arabidopsis thaliana, UniProt B0F481, P510E)
T3 construct: with the predicted N-terminal mitochondrial transit peptide removed; 6xHis-tag (N); thrombin cleavage site (N); made in house; host or cells: E. coli BL21 (DE3) bioA
T3 sequence (B0F481 23-833 P510E): as the sequence (B0F481 23-833 F348T) above, with T326F, P488E counted along it
Outline: as §1

[4] = molecular target: T4, Arabidopsis thaliana BIO3-BIO1 (BioDA) mutants (Arabidopsis thaliana, UniProt B0F481, A609N)
T4 construct: with the predicted N-terminal mitochondrial transit peptide removed; 6xHis-tag (N); thrombin cleavage site (N); made in house; host or cells: E. coli BL21 (DE3) bioA
T4 sequence (B0F481 23-833 A609N): as the sequence (B0F481 23-833 F348T) above, with T326F, A587N counted along it
Outline: as §1

[5] = molecular target: T5, Arabidopsis thaliana BIO3-BIO1 (BioDA) mutants (Arabidopsis thaliana, UniProt B0F481, P510A)
T5 construct: with the predicted N-terminal mitochondrial transit peptide removed; 6xHis-tag (N); thrombin cleavage site (N); made in house; host or cells: E. coli BL21 (DE3) bioA
T5 sequence (B0F481 23-833 P510A): as the sequence (B0F481 23-833 F348T) above, with T326F, P488A counted along it
Outline: as §1

[6] = molecular target: T6, Arabidopsis thaliana BIO3-BIO1 (BioDA) mutants (Arabidopsis thaliana, UniProt B0F481, F420I)
T6 construct: with the predicted N-terminal mitochondrial transit peptide removed; 6xHis-tag (N); thrombin cleavage site (N); made in house; host or cells: E. coli BL21 (DE3) bioA
T6 sequence (B0F481 23-833 F420I): as the sequence (B0F481 23-833 F348T) above, with T326F, F398I counted along it
Outline: as §1

[7] = molecular target: T7, Arabidopsis thaliana BIO3-BIO1 (BioDA) mutants (Arabidopsis thaliana, UniProt B0F481, R756S)
T7 construct: with the predicted N-terminal mitochondrial transit peptide removed; 6xHis-tag (N); thrombin cleavage site (N); made in house; host or cells: E. coli BL21 (DE3) bioA
T7 sequence (B0F481 23-833 R756S): as the sequence (B0F481 23-833 F348T) above, with T326F, R734S counted along it
Outline: as §1

[8] = molecular target: T8, Arabidopsis thaliana BIO3-BIO1 (BioDA) mutants (Arabidopsis thaliana, UniProt B0F481, T512G)
T8 construct: with the predicted N-terminal mitochondrial transit peptide removed; 6xHis-tag (N); thrombin cleavage site (N); made in house; host or cells: E. coli BL21 (DE3) bioA
T8 sequence (B0F481 23-833 T512G): as the sequence (B0F481 23-833 F348T) above, with T326F, T490G counted along it
Outline: as §1

[9] = molecular target: T9, Arabidopsis thaliana BIO3-BIO1 (BioDA) mutants (Arabidopsis thaliana, UniProt B0F481, R790C)
T9 construct: with the predicted N-terminal mitochondrial transit peptide removed; 6xHis-tag (N); thrombin cleavage site (N); made in house; host or cells: E. coli BL21 (DE3) bioA
T9 sequence (B0F481 23-833 R790C): as the sequence (B0F481 23-833 F348T) above, with T326F, R768C counted along it
Outline: as §1

[10] = molecular target: T10, Arabidopsis thaliana BIO3-BIO1 (BioDA) mutants (Arabidopsis thaliana, UniProt B0F481, S509K)
T10 construct: with the predicted N-terminal mitochondrial transit peptide removed; 6xHis-tag (N); thrombin cleavage site (N); made in house; host or cells: E. coli BL21 (DE3) bioA
T10 sequence (B0F481 23-833 S509K): as the sequence (B0F481 23-833 F348T) above, with T326F, S487K counted along it
Outline: as §1

[11] = molecular target: T11, Arabidopsis thaliana BIO3-BIO1 (BioDA) mutants (Arabidopsis thaliana, UniProt B0F481, V354T)
T11 construct: with the predicted N-terminal mitochondrial transit peptide removed; 6xHis-tag (N); thrombin cleavage site (N); made in house; host or cells: E. coli BL21 (DE3) bioA
T11 sequence (B0F481 23-833 V354T): as the sequence (B0F481 23-833 F348T) above, with T326F, V332T counted along it
Outline: as §1

[12] = molecular target: T12, Arabidopsis thaliana BIO3-BIO1 (BioDA) mutants (Arabidopsis thaliana, UniProt B0F481, Y511W)
T12 construct: with the predicted N-terminal mitochondrial transit peptide removed; 6xHis-tag (N); thrombin cleavage site (N); made in house; host or cells: E. coli BL21 (DE3) bioA
T12 sequence (B0F481 23-833 Y511W): as the sequence (B0F481 23-833 F348T) above, with T326F, Y489W counted along it
Outline: as §1

Structure (SMILES)	inhibition at 0.2 µM [1] [%]	inhibition at 1 µM [1] [%]	inhibition at 5 µM [1] [%]	inhibition at 0.2 µM [2] [%]	inhibition at 1 µM [2] [%]	inhibition at 5 µM [2] [%]	inhibition at 0.2 µM [7] [%]	inhibition at 1 µM [7] [%]	inhibition at 5 µM [7] [%]	inhibition at 0.2 µM [3] [%]	inhibition at 1 µM [3] [%]	inhibition at 5 µM [3] [%]	inhibition at 1 µM [8] [%]	inhibition at 1 µM [9] [%]	inhibition at 1 µM [4] [%]	inhibition at 1 µM [10] [%]	inhibition at 1 µM [11] [%]	inhibition at 1 µM [5] [%]	inhibition at 1 µM [12] [%]	inhibition at 1 µM [6] [%]	other results
CCn1c(Cn2ccc(C(F)(F)F)n2)cc(=O)c(C(=O)O)c1-c1ccc(Cl)c(Cl)c1 [Compound L, 2-(3,4-dichlorophenyl)-1-ethyl-4-oxo-6-[[3-(trifluoromethyl)pyrazol-1-yl]methyl]pyridine-3-carboxylic acid]																					inhibition at 0.01 µM [1]: 1%; inhibition at 0.075 µM [1]: 3%; inhibition at 0.5 µM [1]: 7%; inhibition at 0.01 µM [2]: 0%; inhibition at 0.075 µM [2]: 0%; inhibition at 0.5 µM [2]: 0%; inhibition at 0.01 µM [3]: 0%; inhibition at 0.075 µM [3]: 11%; inhibition at 0.5 µM [3]: 59%; inhibition at 0.01 µM [4]: 83%; inhibition at 0.075 µM [4]: 83%; inhibition at 0.5 µM [4]: 85%; inhibition at 0.01 µM [5]: 0%; inhibition at 0.075 µM [5]: 0%; inhibition at 0.5 µM [5]: 63%; inhibition at 0.01 µM [6]: 0%; inhibition at 0.075 µM [6]: 1%; inhibition at 0.5 µM [6]: 62%
CCn1c(C)c(-c2ccc(F)cc2F)c(=O)c(C(=O)O)c1-c1ccc(Cl)c(Cl)c1 [Compound C, 2-(3,4-dichlorophenyl)-5-(2,4-difluorophenyl)-1-ethyl-6-methyl-4-oxo-pyridine-3-carboxylic acid]	0	4	0	0	11	58	24	57	83	8	38	74	57	11	36	88	56	28	85	55	inhibition at 0.2 µM [8]: 17%; inhibition at 5 µM [8]: 92%; inhibition at 0.2 µM [9]: 0%; inhibition at 5 µM [9]: 62%; inhibition at 0.2 µM [4]: 45%; inhibition at 5 µM [4]: 53%; inhibition at 0.2 µM [10]: 54%; inhibition at 5 µM [10]: 95%; inhibition at 0.2 µM [11]: 0%; inhibition at 5 µM [11]: 92%; inhibition at 0.2 µM [5]: 0%; inhibition at 5 µM [5]: 70%; inhibition at 0.2 µM [12]: 41%; inhibition at 5 µM [12]: 97%; inhibition at 0.2 µM [6]: 0%; inhibition at 5 µM [6]: 88%
CCOC(=O)c1nn(-c2ccc3c(c2)OC(F)(F)C(F)(F)O3)c2cccc(C(C)=O)c2c1=O [Compound A, ethyl 5-acetyl-4-oxo-1-(2,2,3,3-tetrafluoro-1,4-benzodioxin-6-yl)cinnoline-3-carboxylate]		0			5			67			26		5	2	78	0	61	4	57	0	
CCn1c(-c2ccc(Cl)c(Cl)c2)c(C(=O)O)c(=O)c2cc(F)ccc21 [Compound M, 2-(3,4-dichlorophenyl)-1-ethyl-6-fluoro-4-oxo-quinoline-3-carboxylic acid]	15	2	7	22	44	75	23	54	78	0	25	61	39	9	49	77	47	14	67	45	inhibition at 0.2 µM [8]: 9%; inhibition at 5 µM [8]: 77%; inhibition at 0.2 µM [9]: 0%; inhibition at 5 µM [9]: 49%; inhibition at 0.2 µM [4]: 44%; inhibition at 5 µM [4]: 62%; inhibition at 0.2 µM [10]: 41%; inhibition at 5 µM [10]: 90%; inhibition at 0.2 µM [11]: 4%; inhibition at 5 µM [11]: 88%; inhibition at 0.2 µM [5]: 0%; inhibition at 5 µM [5]: 51%; inhibition at 0.2 µM [12]: 25%; inhibition at 5 µM [12]: 90%; inhibition at 0.2 µM [6]: 0%; inhibition at 5 µM [6]: 84%
